Results: article PMC10442912 (2023)

Experiments:
[1] = tested on: CAP1 (DNA, aptamer) CGACATAGAGGATCCATCTTGGGGTGTGTAGTGTGTCG; test: fluorescence titration; conditions: 10 mM Mg2+; 20 mM Tris-HCl pH 7.8; CAP1 titrated into 2.5 μM ThT
[2] = tested on: CAP3 (DNA, aptamer) CGACCTAGTGTCCATCGTTCAGTTCCGATTTCTGGTCG; test: ThT fluorescence displacement; conditions: 10 mM Mg2+; 50 mM Tris-HCl pH 7.8; 1 μM aptamer, 0.5 μM ThT displaced
[3] = tested on: CAP1 (DNA, aptamer) CGACATAGAGGATCCATCTTGGGGTGTGTAGTGTGTCG; test: ThT fluorescence displacement; conditions: 10 mM Mg2+; 50 mM Tris-HCl pH 7.8; 1 μM aptamer, 0.5 μM ThT displaced
[4] = tested on: CAP1 (DNA, aptamer) CGACATAGAGGATCCATCTTGGGGTGTGTAGTGTGTCG; test: ITC; conditions: 300 mM Na+, 5 mM K+, 10 mM Mg2+; 50 mM Tris-HCl pH 7.8, 25 °C, preannealed

| Structure (SMILES) | Kd [1] | Kd [2] | Kd [3] | Kd [4] |
| --- | --- | --- | --- | --- |
| Cc1ccc2c(c1)sc(-c1ccc(N(C)C)cc1)[n+]2C | 2.3 µM | – | – | – |
| O=C(N[C@H](CO)[C@H](O)c1ccc([N+](=O)[O-])cc1)C(Cl)Cl | – | 46 µM | 4.2 µM | 9.8 ± 0.5 µM |
